Reference: the supplement of paper PMC10307832

Key:
Assay in all cases: relative viability (nuclei count vs DMSO), 5 days (fraction); higher = more cells survive
BEN = test system: BEN
Method in brief: (§1)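 Relative viability is defined as nuclei in treated wells over nuclei in vehicle wells. Duplicate plates were run and medians reported. Lung cancer cell lines in 1536-well plates were dosed by pin tool one day after seeding, with one drug or with a fixed anchor-drug dose plus five library-drug doses (not always all listed) in √10 steps, and nuclei were counted after 5 days.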

NCI-H727 = test system: NCI-H727
Method in brief: as §1

RERF-LC-KJ = test system: RERF-LC-KJ
Method in brief: as §1

NCI-H1944 = test system: NCI-H1944
Method in brief: as §1

NCI-H1650 = test system: NCI-H1650
Method in brief: as §1

NCI-H2228 = test system: NCI-H2228
Method in brief: as §1

NCI-H2405 = test system: NCI-H2405
Method in brief: as §1

NCI-H1793 = test system: NCI-H1793
Method in brief: as §1

NCI-H1395 = test system: NCI-H1395
Method in brief: as §1

LCLC-103H = test system: LCLC-103H
Method in brief: as §1

SK-LU-1 = test system: SK-LU-1
Method in brief: as §1

NCI-H2087 = test system: NCI-H2087
Method in brief: as §1

NCI-H1437 = test system: NCI-H1437
Method in brief: as §1

201T = test system: 201T
Method in brief: as §1

NCI-H647 = test system: NCI-H647
Method in brief: as §1

CAL-12T = test system: CAL-12T
Method in brief: as §1

NCI-H322M = test system: NCI-H322M
Method in brief: as §1

HCC-827 = test system: HCC-827
Method in brief: as §1

NCI-H3122 = test system: NCI-H3122
Method in brief: as §1

LCLC-97TM1 = test system: LCLC-97TM1
Method in brief: as §1

LXF-289 = test system: LXF-289
Method in brief: as §1

How did the relative viability (BEN; first compound 0.005 µM) turn out when COc1cc2nccc(Oc3ccc(NC(=O)Nc4cc(C)on4)c(Cl)c3)c2cc1OC [Tivozanib] + Cc1cc(Nc2cc(N3CCN(C)CC3)nc(Sc3ccc(NC(=O)C4CC4)cc3)n2)n[nH]1 [Tozasertib] (partner 0.1 µM) was run?
The relative viability was 0.515.

What about the relative viability (BEN; first compound 0.01581 µM) of the same compound?
Its relative viability is 0.425.

And the relative viability (BEN; first compound 0.05 µM)?
The relative viability was 0.572.

And the relative viability (BEN; first compound 0.5 µM)?
The relative viability was 0.542.

What about the relative viability (NCI-H727; first compound 0.005 µM) of the same compound?
Its relative viability is 0.533.

And the relative viability (NCI-H727; first compound 0.01581 µM)?
The relative viability was 0.649.

What about the relative viability (NCI-H727; first compound 0.05 µM) of the same compound?
The relative viability was 0.588.

What about the relative viability (NCI-H727; first compound 0.1581 µM) of the same compound?
The relative viability was 0.635.

And the relative viability (NCI-H727; first compound 0.5 µM)?
Its relative viability is 0.886.

What about the relative viability (RERF-LC-KJ; first compound 0.005 µM) of the same compound?
Its relative viability is 0.477.

And the relative viability (RERF-LC-KJ; first compound 0.01581 µM)?
The relative viability was 0.482.

And the relative viability (RERF-LC-KJ; first compound 0.05 µM)?
Its relative viability is 0.533.

What about the relative viability (RERF-LC-KJ; first compound 0.1581 µM) of the same compound?
Its relative viability is 0.534.

And the relative viability (RERF-LC-KJ; first compound 0.5 µM)?
Its relative viability is 0.496.

What about the relative viability (NCI-H1944; first compound 0.005 µM) of the same compound?
Its relative viability is 0.251.

And the relative viability (NCI-H1944; first compound 0.01581 µM)?
The relative viability was 0.245.

What about the relative viability (NCI-H1944; first compound 0.05 µM) of the same compound?
The relative viability was 0.257.

What about the relative viability (NCI-H1944; first compound 0.1581 µM) of the same compound?
The relative viability was 0.269.

And the relative viability (NCI-H1944; first compound 0.5 µM)?
Its relative viability is 0.297.

And the relative viability (NCI-H1650; first compound 0.005 µM)?
The relative viability was 0.445.

And the relative viability (NCI-H1650; first compound 0.01581 µM)?
The relative viability was 0.436.

And the relative viability (NCI-H1650; first compound 0.05 µM)?
The relative viability was 0.421.

What about the relative viability (NCI-H1650; first compound 0.1581 µM) of the same compound?
The relative viability was 0.349.

And the relative viability (NCI-H1650; first compound 0.5 µM)?
Its relative viability is 0.422.

What about the relative viability (NCI-H2228; first compound 0.005 µM) of the same compound?
Its relative viability is 0.232.

What about the relative viability (NCI-H2228; first compound 0.01581 µM) of the same compound?
Its relative viability is 0.235.

And the relative viability (NCI-H2228; first compound 0.05 µM)?
The relative viability was 0.25.

And the relative viability (NCI-H2228; first compound 0.1581 µM)?
Its relative viability is 0.26.

What about the relative viability (NCI-H2228; first compound 0.5 µM) of the same compound?
The relative viability was 0.274.

And the relative viability (NCI-H2405; first compound 0.005 µM)?
The relative viability was 0.676.

And the relative viability (NCI-H2405; first compound 0.01581 µM)?
The relative viability was 0.753.

And the relative viability (NCI-H2405; first compound 0.05 µM)?
The relative viability was 0.841.

What about the relative viability (NCI-H2405; first compound 0.1581 µM) of the same compound?
Its relative viability is 0.879.

What about the relative viability (NCI-H2405; first compound 0.5 µM) of the same compound?
Its relative viability is 0.711.

And the relative viability (NCI-H1793; first compound 0.005 µM)?
The relative viability was 0.335.

What about the relative viability (NCI-H1793; first compound 0.01581 µM) of the same compound?
Its relative viability is 0.45.

What about the relative viability (NCI-H1793; first compound 0.05 µM) of the same compound?
Its relative viability is 0.392.

And the relative viability (NCI-H1793; first compound 0.1581 µM)?
The relative viability was 0.376.

And the relative viability (NCI-H1793; first compound 0.5 µM)?
The relative viability was 0.359.

And the relative viability (NCI-H1395; first compound 0.005 µM)?
The relative viability was 0.734.

And the relative viability (NCI-H1395; first compound 0.01581 µM)?
The relative viability was 0.738.

And the relative viability (NCI-H1395; first compound 0.05 µM)?
The relative viability was 0.81.

And the relative viability (NCI-H1395; first compound 0.1581 µM)?
Its relative viability is 0.681.

What about the relative viability (NCI-H1395; first compound 0.5 µM) of the same compound?
The relative viability was 0.807.

And the relative viability (LCLC-103H; first compound 0.005 µM)?
The relative viability was 0.525.

What about the relative viability (LCLC-103H; first compound 0.01581 µM) of the same compound?
Its relative viability is 0.503.

And the relative viability (LCLC-103H; first compound 0.05 µM)?
Its relative viability is 0.449.

What about the relative viability (LCLC-103H; first compound 0.1581 µM) of the same compound?
Its relative viability is 0.51.

And the relative viability (LCLC-103H; first compound 0.5 µM)?
The relative viability was 0.549.

What about the relative viability (SK-LU-1; first compound 0.005 µM) of the same compound?
Its relative viability is 0.332.

And the relative viability (SK-LU-1; first compound 0.01581 µM)?
Its relative viability is 0.366.

What about the relative viability (SK-LU-1; first compound 0.05 µM) of the same compound?
Its relative viability is 0.472.

What about the relative viability (SK-LU-1; first compound 0.1581 µM) of the same compound?
The relative viability was 0.357.

And the relative viability (SK-LU-1; first compound 0.5 µM)?
The relative viability was 0.335.

And the relative viability (NCI-H2087; first compound 0.005 µM)?
The relative viability was 0.22.

And the relative viability (NCI-H2087; first compound 0.01581 µM)?
The relative viability was 0.316.

And the relative viability (NCI-H2087; first compound 0.05 µM)?
The relative viability was 0.261.

What about the relative viability (NCI-H2087; first compound 0.1581 µM) of the same compound?
The relative viability was 0.338.

What about the relative viability (NCI-H2087; first compound 0.5 µM) of the same compound?
Its relative viability is 0.303.

What about the relative viability (NCI-H1437; first compound 0.005 µM) of the same compound?
Its relative viability is 0.405.

What about the relative viability (NCI-H1437; first compound 0.01581 µM) of the same compound?
Its relative viability is 0.343.

And the relative viability (NCI-H1437; first compound 0.05 µM)?
The relative viability was 0.53.

And the relative viability (NCI-H1437; first compound 0.1581 µM)?
Its relative viability is 0.44.

And the relative viability (NCI-H1437; first compound 0.5 µM)?
Its relative viability is 0.436.

And the relative viability (201T; first compound 0.005 µM)?
Its relative viability is 0.974.

And the relative viability (201T; first compound 0.01581 µM)?
The relative viability was 0.959.

And the relative viability (201T; first compound 0.05 µM)?
Its relative viability is 0.981.

And the relative viability (201T; first compound 0.1581 µM)?
Its relative viability is 0.985.

What about the relative viability (201T; first compound 0.5 µM) of the same compound?
Its relative viability is 0.996.

What about the relative viability (NCI-H647; first compound 0.005 µM) of the same compound?
The relative viability was 0.269.

What about the relative viability (NCI-H647; first compound 0.01581 µM) of the same compound?
Its relative viability is 0.203.

And the relative viability (NCI-H647; first compound 0.05 µM)?
The relative viability was 0.263.

What about the relative viability (NCI-H647; first compound 0.1581 µM) of the same compound?
Its relative viability is 0.332.

And the relative viability (NCI-H647; first compound 0.5 µM)?
Its relative viability is 0.302.

What about the relative viability (CAL-12T; first compound 0.005 µM) of the same compound?
Its relative viability is 0.281.

What about the relative viability (CAL-12T; first compound 0.01581 µM) of the same compound?
Its relative viability is 0.314.

What about the relative viability (CAL-12T; first compound 0.05 µM) of the same compound?
Its relative viability is 0.373.

And the relative viability (CAL-12T; first compound 0.1581 µM)?
The relative viability was 0.277.

What about the relative viability (CAL-12T; first compound 0.5 µM) of the same compound?
Its relative viability is 0.299.

What about the relative viability (NCI-H322M; first compound 0.005 µM) of the same compound?
Its relative viability is 0.455.

What about the relative viability (NCI-H322M; first compound 0.01581 µM) of the same compound?
Its relative viability is 0.48.

And the relative viability (NCI-H322M; first compound 0.05 µM)?
Its relative viability is 0.518.

What about the relative viability (NCI-H322M; first compound 0.1581 µM) of the same compound?
The relative viability was 0.395.

What about the relative viability (NCI-H322M; first compound 0.5 µM) of the same compound?
The relative viability was 0.479.

And the relative viability (HCC-827; first compound 0.005 µM)?
Its relative viability is 0.429.

And the relative viability (HCC-827; first compound 0.01581 µM)?
The relative viability was 0.421.

And the relative viability (HCC-827; first compound 0.05 µM)?
Its relative viability is 0.417.

What about the relative viability (HCC-827; first compound 0.1581 µM) of the same compound?
Its relative viability is 0.408.

What about the relative viability (HCC-827; first compound 0.5 µM) of the same compound?
The relative viability was 0.455.

And the relative viability (NCI-H3122; first compound 0.005 µM)?
The relative viability was 0.418.

What about the relative viability (NCI-H3122; first compound 0.01581 µM) of the same compound?
The relative viability was 0.428.

And the relative viability (NCI-H3122; first compound 0.05 µM)?
The relative viability was 0.468.

What about the relative viability (NCI-H3122; first compound 0.1581 µM) of the same compound?
Its relative viability is 0.586.

And the relative viability (NCI-H3122; first compound 0.5 µM)?
The relative viability was 0.253.

And the relative viability (LCLC-97TM1; first compound 0.005 µM)?
The relative viability was 0.236.

And the relative viability (LCLC-97TM1; first compound 0.01581 µM)?
The relative viability was 0.168.

What about the relative viability (LCLC-97TM1; first compound 0.05 µM) of the same compound?
The relative viability was 0.274.

What about the relative viability (LCLC-97TM1; first compound 0.1581 µM) of the same compound?
Its relative viability is 0.357.

And the relative viability (LCLC-97TM1; first compound 0.5 µM)?
The relative viability was 0.197.

And the relative viability (LXF-289; first compound 0.005 µM)?
Its relative viability is 0.173.

And the relative viability (LXF-289; first compound 0.01581 µM)?
The relative viability was 0.201.

And the relative viability (LXF-289; first compound 0.05 µM)?
The relative viability was 0.228.

What about the relative viability (LXF-289; first compound 0.1581 µM) of the same compound?
The relative viability was 0.272.

And the relative viability (LXF-289; first compound 0.5 µM)?
Its relative viability is 0.23.
